In the supplement of paper PMC10307832:

Tests used:
Test in all cases: relative viability (nuclei count vs DMSO), 5 days (fraction); higher = more cells survive
NVP-TAE684 + Dasatinib = compound: COc1cc(N2CCC(N3CCN(C)CC3)CC2)ccc1Nc1ncc(Cl)c(Nc2ccccc2S(=O)(=O)C(C)C)n1 [NVP-TAE684] + Cc1nc(Nc2ncc(C(=O)Nc3c(C)cccc3Cl)s2)cc(N2CCN(CCO)CC2)n1 [Dasatinib] (partner 0.075 µM)
Summary of the method: (§1)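 Lung cancer cell lines in 1536-well plates were dosed by pin tool the day after seeding, either with one drug alone or with a fixed anchor-drug dose plus five library-drug doses (not always all listed) in √10 steps. After 5 days, cells were fixed and their nuclei stained in one step (final 0.05% Triton X-100, 1% formaldehyde, 1 ug/ml Hoechst), then counted on 4× images. Relative viability is the nuclei count in treated wells divided by that in vehicle wells. Values are medians of duplicate plates.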

[1] = compound: C1=CC=C2C(=C1)N=C(S2)C(C#N)C3=NC(=NC=C3)NCCC4=CN=CC=C4 + CC(=O)c1c(C)c2cnc(Nc3ccc(N4CCNCC4)cn3)nc2n(C2CCCC2)c1=O [Palbociclib] (partner 0.5 µM)
Summary of the method: as §1

Vandetanib + Foretinib = compound: COc1cc2/c(=N/c3ccc(Br)cc3F)nc[nH]c2cc1OCC1CCN(C)CC1 [Vandetanib] + COc1cc2c(Oc3ccc(NC(=O)C4(C(=O)Nc5ccc(F)cc5)CC4)cc3F)ccnc2cc1OCCCN1CCOCC1 [Foretinib] (partner 0.25 µM)
Summary of the method: as §1

NVP-TAE684 + Bortezomib = compound: COc1cc(N2CCC(N3CCN(C)CC3)CC2)ccc1Nc1ncc(Cl)c(Nc2ccccc2S(=O)(=O)C(C)C)n1 [NVP-TAE684] + CC(C)C[C@H](NC(=O)[C@H](Cc1ccccc1)NC(=O)c1cnccn1)B(O)O [Bortezomib] (partner 0.002 µM)
Summary of the method: as §1

| Cell Line | relative viability (NVP-TAE684 + Dasatinib; first compound 0.2 µM) | relative viability (NVP-TAE684 + Dasatinib; first compound 0.6325 µM) | relative viability (NVP-TAE684 + Dasatinib; first compound 2 µM) | relative viability ([1]; first compound 0.005 µM) | relative viability ([1]; first compound 0.01581 µM) | relative viability ([1]; first compound 0.05 µM) | relative viability ([1]; first compound 0.1581 µM) | relative viability ([1]; first compound 0.5 µM) | relative viability (Vandetanib + Foretinib; first compound 0.02 µM) | relative viability (Vandetanib + Foretinib; first compound 0.06325 µM) | relative viability (Vandetanib + Foretinib; first compound 0.2 µM) | relative viability (Vandetanib + Foretinib; first compound 0.6325 µM) | relative viability (Vandetanib + Foretinib; first compound 2 µM) | relative viability (NVP-TAE684 + Bortezomib; first compound 0.6325 µM) | relative viability (NVP-TAE684 + Bortezomib; first compound 2 µM) | relative viability (NVP-TAE684 + Bortezomib; first compound 0.2 µM) |
| --- | --- | --- | --- | --- | --- | --- | --- | --- | --- | --- | --- | --- | --- | --- | --- | --- |
| NCI-H520 | 0.17 | 0.196 | 0.139 | 0.193 | 0.266 | 0.231 | 0.259 | 0.213 | 0.623 | 0.682 | 0.194 | 0.754 | 0.806 | 0.672 | 0.321 | – |
| HOP-62 | 0.444 | 0.509 | 0.201 | 0.412 | 0.571 | 0.432 | 0.471 | 0.474 | 1.04 | 1.02 | 0.562 | 1.11 | 1.02 | 0.725 | 0.758 | 0.678 |
| NCI-H1651 | 0.326 | 0.321 | 0.146 | 0.473 | 0.518 | 0.535 | 0.539 | 0.504 | 0.938 | 0.721 | 0.13 | 0.786 | 0.708 | 0.98 | 0.93 | 0.987 |
| NCI-H460 | 0.703 | 0.285 | 0.0445 | – | 0.146 | 0.118 | 0.147 | 0.143 | 0.934 | 0.992 | 0.952 | 0.953 | 0.997 | 1.2 | 0.593 | 1.77 |
| NCI-H1734 | 0.47 | 0.362 | 0.194 | 0.303 | 0.313 | 0.307 | 0.355 | 0.33 | 0.825 | 0.913 | 0.169 | 0.903 | 0.771 | 0.982 | 0.601 | 0.986 |
